For twelve compounds, IC50 results are on record in BindingDB's records for doi:10.1016/j.bmc.2010.03.036 (Chugai Pharmaceutical, 2010).

Test [1] can be described thus: Antagonist activity at AR in human LNCAP cells assessed as effect on cell proliferation after 6 days.
Test [2] can be described thus: Antagonist activity at AR in bicalutamide-resistant human LNCAP cells assessed as effect on cell proliferation after 6 days.

Broadly, the IC50 is the concentration that inhibits the measured activity by half. For `CC1(C)C(=O)N(c2ccc(C#N)c(C(F)(F)F)c2)C(=S)N1CCCNC(N)=O` [3-[3-(4-Cyano-3-trifluoromethylphenyl)-5,5-dimethyl-4-oxo-2-thioxoimidazolidin-1-yl]propylurea], the results for the concentration for half-maximal inhibition (IC50) in test [1] and in test [2] were 1600 nM and 200 nM, respectively.

Turning to `Cc1cc(N2C(=O)C(C)(C)N(CCCS(N)(=O)=O)C2=S)ccc1C#N` [3-[3-(4-Cyano-3-methylphenyl)-5,5-dimethyl-4-oxo-2-thioxoimidazolidin-1-yl]propane-1-sulfonamide], the concentration for half-maximal inhibition (IC50) in test [1] stood at 300 nM; in test [2], 51 nM.

Turning to `CC1(C)C(=O)N(c2ccc(C#N)c(C(F)(F)F)c2)C(=S)N1CCCS(N)(=O)=O` [3-[3-(4-Cyano-3-trifluoromethylphenyl)-5,5-dimethyl-4-oxo-2-thioxoimidazolidin-1-yl]propane-1-sulfonamide], the IC50 in test [1] amounted to 160 nM; in test [2], 18 nM.

Turning to `Cc1c(N2C(=O)C(C)(C)N(CCCS(N)(=O)=O)C2=S)ccc(C#N)c1C(F)(F)F` [3-[3-(4-Cyano-2-methyl-3-trifluoromethylphenyl)-5,5-dimethyl-4-oxo-2-thioxoimidazolidin-1-yl]propane-1-sulfonamide], in test [1], the concentration for half-maximal inhibition (IC50) was 1100 nM.

In the case of `CC1(C)C(=O)N(c2ccc(C#N)c(C(F)(F)F)c2)C(=S)N1CCCC(N)=O` [4-[3-(4-Cyano-3-trifluoromethylphenyl)-5,5-dimethyl-4-oxo-2-thioxoimidazolidin-1-yl]butyramide], the IC50 in test [1] worked out at 400 nM; in test [2], 55 nM.

For the compound `CNS(=O)(=O)CCCN1C(=S)N(c2ccc(C#N)c(C(F)(F)F)c2)C(=O)C1(C)C` [3-[3-(4-Cyano-3-trifluoromethylphenyl)-5,5-dimethyl-4-oxo-2-thioxoimidazolidin-1-yl]propane-1-sulfonic acidmethylamide], the figures for the IC50 in test [1] and in test [2] were 190 nM and 30 nM, respectively.

For the compound `CC1(C)C(=O)N(c2ccc(C#N)c(C(F)(F)F)c2)C(=S)N1CCCNS(N)(=O)=O` [3-[3-(4-Cyano-3-trifluoromethylphenyl)-5,5-dimethyl-4-oxo-2-thioxoimidazolidin-1-yl]propylsulfamide], the IC50 in test [1] amounted to 780 nM; in test [2], 89 nM.

Consider `CC1(C)C(=O)N(c2ccc(C#N)c(C(F)(F)F)c2)C(=S)N1CCCC(=O)O` [4-[3-(4-cyano-3-trifluoromethylphenyl)-5,5-dimethyl-4-oxo-2-thioxoimidazolidin-1-yl]butyric acid], for which the IC50 in test [1] was 2000 nM; in test [2], 400 nM.

Regarding `CC1(C)C(=O)N(c2ccc(C#N)c(C(F)(F)F)c2)C(=S)N1CCS(N)(=O)=O` [2-[3-(4-Cyano-3-trifluoromethylphenyl)-5,5-dimethyl-4-oxo-2-thioxoimidazolidin-1-yl]ethanesulfonamide], the half-maximal inhibitory concentration (IC50) in test [2] was 79 nM.

Consider `CC1(C)C(=O)N(c2ccc(C#N)c(C(F)(F)F)c2)C(=S)N1CCCCS(N)(=O)=O` [4-[3-(4-Cyano-3-trifluoromethylphenyl)-5,5-dimethyl-4-oxo-2-thioxoimidazolidin-1-yl]butane-1-sulfonamide], for which the IC50 in test [1] was found to be 1400 nM; in test [2] it was 110 nM.

Consider `CC1(C)C(=O)N(c2ccc(C#N)c(Cl)c2)C(=S)N1CCCS(N)(=O)=O` [3-[3-(3-Chloro-4-cyanophenyl)-5,5-dimethyl-4-oxo-2-thioxoimidazolidin-1-yl]propane-1-sulfonamide], for which the IC50 in test [1] was 410 nM; in test [2] it was 12 nM.

As to `CN(C)S(=O)(=O)CCCN1C(=S)N(c2ccc(C#N)c(C(F)(F)F)c2)C(=O)C1(C)C` [3-[3-(4-Cyano-3-trifluoromethylphenyl)-5,5-dimethyl-4-oxo-2-thioxoimidazolidin-1-yl]propane-1-sulfonic aciddimethylamide], the concentration for half-maximal inhibition (IC50) in test [1] is 3700 nM.
